Source: PubChem BioAssay (NCI)
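The concentration for 50% growth inhibition is given as GI50. TGI denotes the concentration required for complete inhibition of growth.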

Assays:
Assay in all cases: DTP human tumour cell line panel, 384-well format
A498 renal = test system: A498 renal
A549 NSCLC = test system: A549 NSCLC
ACHN renal = test system: ACHN renal
BT-549 breast = test system: BT-549 breast
CAKI-1 renal = test system: CAKI-1 renal
COLO 205 colon = test system: COLO 205 colon
DU-145 prostate = test system: DU-145 prostate
EKVX NSCLC = test system: EKVX NSCLC
HCC-2998 colon = test system: HCC-2998 colon
HCT-116 colon = test system: HCT-116 colon
HCT-15 colon = test system: HCT-15 colon
HL-60(TB) leukemia = test system: HL-60(TB) leukemia
HOP-62 NSCLC = test system: HOP-62 NSCLC
HOP-92 NSCLC = test system: HOP-92 NSCLC
HS 578T breast = test system: HS 578T breast
HT29 colon = test system: HT29 colon
IGROV1 ovarian = test system: IGROV1 ovarian
KM12 colon = test system: KM12 colon
LOX IMVI melanoma = test system: LOX IMVI melanoma
M14 melanoma = test system: M14 melanoma
MALME-3M melanoma = test system: MALME-3M melanoma
MCF7 breast = test system: MCF7 breast
MDA-MB-231 breast = test system: MDA-MB-231 breast
MDA-MB-435 melanoma = test system: MDA-MB-435 melanoma
MDA-MB-468 breast = test system: MDA-MB-468 breast
MOLT-4 leukemia = test system: MOLT-4 leukemia
NCI-H226 lung = test system: NCI-H226 lung
NCI-H23 lung = test system: NCI-H23 lung
NCI-H322M lung = test system: NCI-H322M lung
NCI-H460 NSCLC = test system: NCI-H460 NSCLC
NCI-H522 lung = test system: NCI-H522 lung
NCI/ADR-RES ovarian = test system: NCI/ADR-RES ovarian
OVCAR-3 ovarian = test system: OVCAR-3 ovarian
OVCAR-4 ovarian = test system: OVCAR-4 ovarian
OVCAR-5 ovarian = test system: OVCAR-5 ovarian
OVCAR-8 ovarian = test system: OVCAR-8 ovarian
PC-3 prostate = test system: PC-3 prostate
RPMI-8226 leukemia = test system: RPMI-8226 leukemia
RXF 393 renal = test system: RXF 393 renal
SF-268 CNS = test system: SF-268 CNS
SF-295 CNS = test system: SF-295 CNS
SF-539 CNS = test system: SF-539 CNS
SK-MEL-28 melanoma = test system: SK-MEL-28 melanoma
SK-MEL-5 melanoma = test system: SK-MEL-5 melanoma
SK-OV-3 ovarian = test system: SK-OV-3 ovarian
SN12C renal = test system: SN12C renal
SNB-19 CNS = test system: SNB-19 CNS
SNB-75 CNS = test system: SNB-75 CNS
SR leukemia = test system: SR leukemia
T-47D breast = test system: T-47D breast
TK-10 renal = test system: TK-10 renal
U251 glioblastoma = test system: U251 glioblastoma
UACC-257 melanoma = test system: UACC-257 melanoma
UACC-62 melanoma = test system: UACC-62 melanoma

CNC(=O)c1cc(COc2nnc(Nc3ccc(Cl)cc3)c3ccoc23)ccn1
GI50 (A498 renal): 9.38 µM | TGI (A498 renal): 21.3 µM | GI50 (A549 NSCLC): 5.43 µM | TGI (A549 NSCLC): 19.1 µM | GI50 (ACHN renal): 11.1 µM | TGI (ACHN renal): 25.5 µM | GI50 (BT-549 breast): 9.44 µM | TGI (BT-549 breast): 21.9 µM | GI50 (CAKI-1 renal): 3.38 µM | TGI (CAKI-1 renal): 11.7 µM | GI50 (COLO 205 colon): 20 µM | TGI (COLO 205 colon): 37.2 µM | GI50 (DU-145 prostate): 12.4 µM | TGI (DU-145 prostate): 25.2 µM | GI50 (EKVX NSCLC): 13.6 µM | TGI (EKVX NSCLC): 26.8 µM | GI50 (HCC-2998 colon): 11.1 µM | TGI (HCC-2998 colon): 30 µM | GI50 (HCT-116 colon): 4.08 µM | TGI (HCT-116 colon): 14.9 µM | GI50 (HCT-15 colon): 11.8 µM | TGI (HCT-15 colon): 27.3 µM | GI50 (HL-60(TB) leukemia): > 100 µM | TGI (HL-60(TB) leukemia): > 100 µM | GI50 (HOP-62 NSCLC): 4.89 µM | TGI (HOP-62 NSCLC): 15.5 µM | GI50 (HOP-92 NSCLC): 4.23 µM | TGI (HOP-92 NSCLC): 14.2 µM | GI50 (HS 578T breast): 2.73 µM | TGI (HS 578T breast): 8.17 µM | GI50 (HT29 colon): 2.4 µM | TGI (HT29 colon): 5.67 µM | GI50 (IGROV1 ovarian): 12.2 µM | TGI (IGROV1 ovarian): 26.7 µM | GI50 (KM12 colon): 3.29 µM | TGI (KM12 colon): 8.84 µM | GI50 (LOX IMVI melanoma): 18.6 µM | TGI (LOX IMVI melanoma): 43.8 µM | GI50 (M14 melanoma): 19.3 µM | TGI (M14 melanoma): 38.6 µM | GI50 (MALME-3M melanoma): 5.69 µM | TGI (MALME-3M melanoma): 18 µM | GI50 (MCF7 breast): 4.71 µM | TGI (MCF7 breast): 17.6 µM | GI50 (MDA-MB-231 breast): 4.69 µM | TGI (MDA-MB-231 breast): 18.3 µM | GI50 (MDA-MB-435 melanoma): 19.1 µM | TGI (MDA-MB-435 melanoma): 37.5 µM | GI50 (MDA-MB-468 breast): 2.29 µM | TGI (MDA-MB-468 breast): 4.86 µM | GI50 (MOLT-4 leukemia): 34.8 µM | TGI (MOLT-4 leukemia): > 100 µM | GI50 (NCI-H226 lung): 15.2 µM | TGI (NCI-H226 lung): 29.5 µM | GI50 (NCI-H23 lung): 2.45 µM | TGI (NCI-H23 lung): 5.19 µM | GI50 (NCI-H322M lung): 11.9 µM | TGI (NCI-H322M lung): 25.1 µM | GI50 (NCI-H460 NSCLC): 8.81 µM | TGI (NCI-H460 NSCLC): 21 µM | GI50 (NCI-H522 lung): 5.23 µM | TGI (NCI-H522 lung): 17 µM | GI50 (NCI/ADR-RES ovarian): 8.44 µM | TGI (NCI/ADR-RES ovarian): 20.8 µM | GI50 (OVCAR-3 ovarian): 14.3 µM | TGI (OVCAR-3 ovarian): 27.9 µM | GI50 (OVCAR-4 ovarian): 5.31 µM | TGI (OVCAR-4 ovarian): 16.6 µM | GI50 (OVCAR-5 ovarian): 21.9 µM | TGI (OVCAR-5 ovarian): 40.2 µM | GI50 (OVCAR-8 ovarian): 1.96 µM | TGI (OVCAR-8 ovarian): 3.68 µM | GI50 (PC-3 prostate): 11.3 µM | TGI (PC-3 prostate): 25.5 µM | GI50 (RPMI-8226 leukemia): 14.1 µM | TGI (RPMI-8226 leukemia): 39.9 µM | GI50 (RXF 393 renal): 2.84 µM | TGI (RXF 393 renal): 8.62 µM | GI50 (SF-268 CNS): 3.03 µM | TGI (SF-268 CNS): 8.04 µM | GI50 (SF-295 CNS): 2.4 µM | TGI (SF-295 CNS): 5.78 µM | GI50 (SF-539 CNS): 1.49 µM | TGI (SF-539 CNS): 3.07 µM | GI50 (SK-MEL-28 melanoma): 5.17 µM | TGI (SK-MEL-28 melanoma): 17.6 µM | GI50 (SK-MEL-5 melanoma): 8.37 µM | TGI (SK-MEL-5 melanoma): 20.7 µM | GI50 (SK-OV-3 ovarian): 2.8 µM | TGI (SK-OV-3 ovarian): 9.01 µM | GI50 (SN12C renal): 12.9 µM | TGI (SN12C renal): 31.7 µM | GI50 (SNB-19 CNS): 13.1 µM | TGI (SNB-19 CNS): 26 µM | GI50 (SNB-75 CNS): 3.09 µM | TGI (SNB-75 CNS): 11 µM | GI50 (SR leukemia): 2.5 µM | TGI (SR leukemia): 4.87 µM | GI50 (T-47D breast): 15.4 µM | TGI (T-47D breast): 46.9 µM | GI50 (TK-10 renal): 10.3 µM | TGI (TK-10 renal): 22.3 µM | GI50 (U251 glioblastoma): 10.2 µM | TGI (U251 glioblastoma): 21.9 µM | GI50 (UACC-257 melanoma): 7.95 µM | TGI (UACC-257 melanoma): 20.8 µM | GI50 (UACC-62 melanoma): 3.51 µM | TGI (UACC-62 melanoma): 12.2 µM
